Measurements: patent US12466820B2, “Amino quinazoline derivatives as P2X3 inhibitors” (CHIESI FARMACEUTICI S.p.A., priority 2019, dated 2025)
Structures can show the parent of a compound that is named as a salt.

Biological target: T1, h P2X3 (Homo sapiens, UniProt P56373)
T1 sequence (P56373 1-397): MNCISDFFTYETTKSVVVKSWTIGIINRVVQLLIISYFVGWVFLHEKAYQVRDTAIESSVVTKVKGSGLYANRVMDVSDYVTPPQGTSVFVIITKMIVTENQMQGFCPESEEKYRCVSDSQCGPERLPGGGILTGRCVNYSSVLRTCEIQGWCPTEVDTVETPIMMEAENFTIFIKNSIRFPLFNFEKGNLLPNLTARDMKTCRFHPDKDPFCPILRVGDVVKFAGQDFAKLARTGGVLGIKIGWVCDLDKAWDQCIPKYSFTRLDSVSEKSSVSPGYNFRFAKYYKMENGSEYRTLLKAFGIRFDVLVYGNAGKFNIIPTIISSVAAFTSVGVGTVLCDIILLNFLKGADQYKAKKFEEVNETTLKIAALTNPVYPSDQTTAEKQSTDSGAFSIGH
Assay: In vitro electrophysiology assay for P2X3 (automated whole-cell patch clamp, Sophion Qube)
Format: cell-based
Conditions: Table 6; range of activity; inhibition of P2X3 current, agonist α,β-MeATP (800 nM)
Description: Pharmacological Activity of the Compounds of the Invention In Vitro Electrophysiology Assay for P2X3
Cells expressing P2X3 receptors were grown according to standard practice and maintained at 37° C. in a 5% humidified CO2 atmosphere. The cells were seeded into T175 flask 2 days prior to the day of the assay and dissociated from the flasks using TrypLE when grown to confluence of 80-90%. The dissociated cells were resuspended in serum free media at a cell density of 3×10^6 cells/ml and loaded onto the Sophion Qube automated patch-clamp system. The extracellular assay buffer contained 145 mM NaCl, 4 mM KCl, 2 mM CaCl2), 1 mM MgCl2, 10 mM HEPES, and 10 mM glucose at pH 7.4. The intracellular assay solution contained 140 mM CsF, 10 mM NaCl, 10 mM EGTA, 10 mM HEPES at pH 7.2. Agonist stock solutions were prepared in H2O and diluted in bath solution prior to use. All antagonists were prepared as 10 mM stock solutions in DMSO and diluted in bath solution prior to use. All experiments were performed under the whole-cell patch clamp configuration at room temperature with 384 individual cells being voltage clamped at −60 mV simultaneously on the Sophion Qube instrument. Two baseline responses were established with the application of α,β-MeATP (800 nM), with the subsequent agonist applications being washed out using extracellular assay buffer containing 0.5 U/ml apyrase. Following the second agonist application, antagonist was incubated in the absence of α,β-MeATP for 10 minutes. After antagonist preincubation, 800 nM α,β-MeATP and antagonist were co-administered to determine the inhibitory effect of the antagonist. One concentration of an antagonist was assessed against a single cell, with different concentrations of the antagonist applied to other cells on the 384 recording substrate. The control P2X3 current amplitude was taken from the peak current amplitude from the second agonist response prior to preincubation with antagonist. The peak P2X3 current amplitude in the presence of antagonist was used to calculate the inhibitory effect at each concentration of the antagonist according to the following equation: […]
Concentration-response curves were constructed from ten different concentrations with each concentration of antagonist tested on at least two individual cells. The concentration of the antagonist to inhibit P2X3 current by 50% (IC50) was determined by fitting the data with the following equation: […]
Where ‘a’ is minimum response, ‘b’ is maximum response, ‘c’ is IC50 and ‘d’ is Hill slope.
The results for individual compounds are provided below in Table 6 and are expressed as range of activity.
The activity of the comparative examples A and B have been tested in the in vitro Electrophysiology Assay for P2X3 as described above.

Row | Structure (SMILES) | IC50
1 | Cc1cnc(-c2cc(OC3CCOCC3)c3ncnc(NCc4ccc(C)nn4)c3c2)nc1 [Example 31, N-[(6-methylpyridazin-3-yl)methyl]-6-(5-methylpyrimidin-2-yl)-8-tetrahydropyran-4-yloxy-quinazolin-4-amine] | 316 to 3160 nM
2 | C[C@@H](Nc1ncnc2c(C3=CCNCC3)cc(-c3ccc(F)cc3)cc12)c1cnc(C(F)(F)F)nc1 [Example 27, (R)-6-(4-fluorophenyl)-8-(1,2,3,6-tetrahydropyridin-4-yl)-N-(1-(2-(trifluoro-methyl)pyrimidin-5-yl)ethyl)quinazolin-4-amine] | < 316 nM
3 | CN1CCC(CNc2ncnc3c(OCC(=O)O)cc(-c4ccc(F)cc4)cc23)CC1 [Example 57, 2-((6-(4-fluorophenyl)-4-(((1-methylpiperidin-4-yl)methyl)amino)quinazolin-8-yl)oxy)acetic Acid Hydrochloride] | 316 to 3160 nM
4 | C[C@@H](Nc1ncnc2c(OC3CC4CC3CN4)cc(-c3ccc(F)cc3)cc12)c1cnc(C(F)(F)F)nc1 (stereo partly drawn) [Example 41, 8-((2-azabicyclo[2.2.1]heptan-5-yl)oxy)-6-(4-fluorophenyl)-N-((R)-1-(2-(trifluoromethyl)pyrimidin-5-yl)ethyl)quinazolin-4-amine] | < 316 nM
5 | Cc1noc(C(C)Nc2ncnc3c(OC4CCOCC4)cc(-c4ccc(F)cn4)cc23)n1 (single isomer, unassigned) [Example 85, 6-(5-fluoro-2-pyridyl)-N-[1-(3-methyl-1,2,4-oxadiazol-5-yl)ethyl]-8-tetrahydropyran-4-yloxy-quinazolin-4-amine] | < 316 nM
6 | COc1cc(-c2ncc(C)s2)cc2c(NC(C)c3nnc(C)s3)ncnc12 (single isomer, unassigned) [Example 165, 8-methoxy-N-(1-(5-methyl-1,3,4-thiadiazol-2-yl)ethyl)-6-(5-methylthiazol-2-yl)quinazolin-4-amine] | < 316 nM
7 | Cc1cnc(-c2cc(OCC3(O)CCOCC3)c3ncnc(NC(C)c4ccc(C)nn4)c3c2)nc1 (centres unmarked) [Example 34, 4-[[4-[1-(6-methylpyridazin-3-yl)ethylamino]-6-(5-methylpyrimidin-2-yl)quinazolin-8-yl]oxymethyl]tetrahydropyran-4-ol] | 316 to 3160 nM
8 | COc1cc(-n2ccc(Cl)n2)cc2c(NC(C)c3ccc(C)nn3)ncnc12 (centres unmarked) [Example 96, 6-(3-chloro-1H-pyrazol-1-yl)-8-methoxy-N-(1-(6-methylpyridazin-3-yl)ethyl)quinazolin-4-amine] | 316 to 3160 nM
9 | COc1cc(-c2ccc(C)cn2)cc2c(NC(C)c3nnc(C)s3)ncnc12 (single isomer, unassigned) [Example 126, 8-methoxy-6-(5-methyl-2-pyridyl)-N-[1-(5-methyl-1,3,4-thiadiazol-2-yl)ethyl]quinazolin-4-amine] | 3160 to 31600 nM
10 | COc1cc(-c2ncc(C)s2)cc2c(NCc3ccc(F)cn3)ncnc12 [Example 119, N-((5-fluoropyridin-2-yl)methyl)-8-methoxy-6-(5-methylthiazol-2-yl)quinazolin-4-amine] | < 316 nM
11 | Cc1cnc(-c2cc(OC3CCOCC3)c3ncnc(NC(C)c4ccc(C)nn4)c3c2)nc1 (single isomer, unassigned) [Example 29, N-[1-(6-methylpyridazin-3-yl)ethyl]-6-(5-methylpyrimidin-2-yl)-8-tetrahydropyran-4-yloxy-quinazolin-4-amine] | 316 to 3160 nM
12 | COc1cc(-c2ccc(F)cn2)cc2c(NCc3noc(C)n3)ncnc12 [Example 132, 6-(5-Fluoropyridin-2-yl)-8-methoxy-N-((5-methyl-1,2,4-oxadiazol-3-yl)methyl)quinazolin-4-amine] | 316 to 3160 nM
13 | COc1cc(-n2ccc(Cl)n2)cc2c(NC(C)c3cnc(C(F)(F)F)nc3)ncnc12 (centres unmarked) [Example 95, 6-(3-Chloro-1H-pyrazol-1-yl)-8-methoxy-N-(1-(2-(trifluoromethyl)pyrimidin-5-yl)ethyl)quinazolin-4-amine] | < 316 nM
14 | Cc1cnc(-c2cc(OC3CCOCC3)c3ncnc(NC(C)c4nnc(C)s4)c3c2)s1 (single isomer, unassigned) [Example 172, N-[1-(5-methyl-1,3,4-thiadiazol-2-yl)ethyl]-6-(5-methylthiazol-2-yl)-8-tetrahydropyran-4-yloxy-quinazolin-4-amine] | < 316 nM
15 | COc1cc(-c2ncc(C)s2)cc2c(NCc3ccn(C)c(=O)c3)ncnc12 [Example 115, 4-(((8-methoxy-6-(5-methylthiazol-2-yl)quinazolin-4-yl)amino)methyl)-1-methylpyridin-2(1H)-one] | < 316 nM
16 | COc1cc(C2=CCOCC2)cc2c(NCc3ccc(C)nn3)ncnc12 [Example 188, 6-(3,6-Dihydro-2H-pyran-4-yl)-8-methoxy-N-((6-methylpyridazin-3-yl)methyl)quinazolin-4-amine] | 3160 to 31600 nM
17 | COc1cc(-c2ccc(F)cc2)cc2c(NC(C)c3cccc(=O)[nH]3)ncnc12 (centres unmarked) [Example 1, 6-(1-((6-(4-Fluorophenyl)-8-methoxyquinazolin-4-yl)amino)ethyl)pyridin-2(1H)-one] | < 316 nM
18 | Cc1nnc([C@@H](C)Nc2ncnc3c(S(=O)(=O)N4CCOCC4)cc(-c4ccc(F)cc4)cc23)s1 (racemic) [Example 10, (Rac)-6-(4-fluorophenyl)-N-(1-(5-methyl-1,3,4-thiadiazol-2-yl)ethyl)-8-(morpholinosulfonyl)quinazolin-4-amine] | < 316 nM
19 | COc1cc(-c2ccc(F)cn2)cc2c(NC(C)c3ccc(C(F)(F)F)nn3)ncnc12 (single isomer, unassigned) [Example 170, 6-(5-fluoro-2-pyridyl)-8-methoxy-N-[1-[6-(trifluoromethyl)pyridazin-3-yl]ethyl]quinazolin-4-amine] | 316 to 3160 nM
20 | COc1cc(-c2ncc(C)cn2)cc2c(NC(C)c3nnc(C)s3)ncnc12 (single isomer, unassigned) [Example 124, 8-Methoxy-6-(5-methylpyrimidin-2-yl)-N-[1-(5-methyl-1,3,4-thiadiazol-2-yl)ethyl]quinazolin-4-amine] | 316 to 3160 nM
21 | C[C@@H](Nc1ncnc2c(OC3CCNC4(CCC4)C3)cc(-c3ccc(F)cc3)cc12)c1cnc(C(F)(F)F)nc1 (stereo partly drawn) [Example 39, 8-(5-azaspiro[3.5]nonan-8-yloxy)-6-(4-fluorophenyl)-N-[(1R)-1-[2-(trifluoromethyl)pyrimidin-5-yl]ethyl]quinazolin-4-amine] | < 316 nM
22 | Cc1ccc(CNc2ncnc3c(OC4CCOCC4)cc(-c4ncc(C)s4)cc23)nn1 [Example 38, N-[(6-methylpyridazin-3-yl)methyl]-6-(5-methylthiazol-2-yl)-8-tetrahydropyran-4-yloxy-quinazolin-4-amine] | 316 to 3160 nM
23 | COc1cc(-c2ncc(C)s2)cc2c(NCc3ncc(F)cc3F)ncnc12 [Example 118, N-((3,5-difluoropyridin-2-yl)methyl)-8-methoxy-6-(5-methylthiazol-2-yl)quinazolin-4-amine] | < 316 nM
24 | COc1cc(-c2ncc(F)cn2)cc2c(N[C@H](C)c3ccc(C)nn3)ncnc12 [Example 4] | 316 to 3160 nM
25 | CNS(=O)(=O)c1cc(-c2ccc(F)cc2)cc2c(N[C@H](C)c3nnc(C)s3)ncnc12 [Example 21] | 316 to 3160 nM
26 | COc1cc(-c2ncc(F)cn2)cc2c(NC(C)c3nnc(C)o3)ncnc12 (centres unmarked) [Example 110, 6-(5-fluoropyrimidin-2-yl)-8-methoxy-N-(1-(5-methyl-1,3,4-oxadiazol-2-yl)ethyl)quinazolin-4-amine] | 316 to 3160 nM
